In patent US20150132764A1, “BAG3 AS BIOCHEMICAL SERUM AND TISSUE MARKER” (BIOUNIVERSA S.R.L., priority 2012, published 2015):
Values belong to the molecule of their own block, whether it stands above or below them.

Legend:
[1] = biological target: surface of J774 A1 macrophages (unidentified BAG3 binding partner) (murine); experiment: flow cytometry on J774 A.1 cells, FITC-BSA negative control
J774 A.1 cells [2] = experiment: FACS competition assay of FITC-rBAG3 binding to J774 macrophages; set-up: species or system murine; conditions: 625 nM peptide, then 14 nM FITC-rBAG3, J774 cells
Method: In particular J774 cells were incubated with 14 nM FITC-BAG3 protein and with 625 nM of BAG3 peptides (peptide 1, peptide 2, peptide 3, peptide 4 or scrambled peptide) or with 420 nM of F(ab′)2 fragments from anti-BAG3 monoclonal and polyclonal antibodies (mouse monoclonal AC1, AC2 and rabbit polyclonal TOS2). F(ab′)2 fragments from mouse IgG or F(ab′)2 fragments from rabbit IgG were used as a negative control.
Competition—J774 A.1 cells (2.5×105/100 μl) were incubated with 625 nM of BAG3 peptides (peptide 1, peptide 2, peptide 3, peptide 4 or scrambled peptide) or with 420 nM of F(ab′)2 fragments from anti-BAG3 monoclonal and polyclonal antibodies (mouse monoclonal AC1, AC2 and rabbit polyclonal TOS2) or F(ab′)2 fragments from mouse IgG or F(ab′)2 fragments from rabbit IgG in PBS containing 2% FBS+0.1% NaN3 for 30 min on ice. After incubation the cells were washing with PBS and then were incubated with of FITC-rBAG3 protein (14 nM), in PBS containing 2% FBS+0.1% NaN3 for 30 min at 4° C. in the dark. After washing with PBS, the cells were resuspended in PBS+2% FBS+0.1% NaN3 and analyzed by flow cytometer (BD Biosciences).

[3] = biological target: FITC-conjugated recombinant BAG3 protein (human) (UniProt O95817); experiment: flow cytometry competition; 14 nM FITC-rBAG3 on J774 A.1 cells with 420 nM control F(ab')2
UniProt O95817, sequence (O95817 whole entry): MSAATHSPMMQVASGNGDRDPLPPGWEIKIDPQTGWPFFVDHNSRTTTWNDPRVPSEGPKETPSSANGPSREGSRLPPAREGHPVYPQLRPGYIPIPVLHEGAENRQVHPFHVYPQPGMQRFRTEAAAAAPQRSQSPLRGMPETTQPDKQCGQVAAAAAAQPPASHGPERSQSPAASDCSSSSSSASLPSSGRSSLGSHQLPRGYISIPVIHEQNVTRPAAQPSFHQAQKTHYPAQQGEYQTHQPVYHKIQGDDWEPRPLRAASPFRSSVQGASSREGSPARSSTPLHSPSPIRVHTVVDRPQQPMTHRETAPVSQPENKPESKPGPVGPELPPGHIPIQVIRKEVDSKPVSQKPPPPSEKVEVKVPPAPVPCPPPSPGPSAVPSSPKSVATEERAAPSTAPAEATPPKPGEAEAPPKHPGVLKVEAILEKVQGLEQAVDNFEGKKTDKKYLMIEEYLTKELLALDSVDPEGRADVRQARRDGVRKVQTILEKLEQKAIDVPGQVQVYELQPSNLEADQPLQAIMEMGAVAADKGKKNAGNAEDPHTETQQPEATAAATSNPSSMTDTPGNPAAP

J774 A.1 cells [4] = experiment: FACS analysis of FITC-rBAG3 binding to J774 macrophages; set-up: species or system murine; conditions: for % of positive cells (±S.D.): flow cytometry
Method: FIG. 3B: BAG3 binds macrophages. J774 A1 macrophages (1×10^6 cells/ml) were incubated with different concentration of Fitc-BAG3 protein (7, 14 and 70 nm). FITC-BSA (70 nM) was used as a negative control (grey). Cells fluorescence was analyzed by flow cytometry.
rBAG3 binding—J774 A.1 cells were blocked with 2% FBS+0.1% NaN3 in PBS for 15 min on ice and incubated (2.5×105/100 μl) with different concentration of FITC-rBAG3 protein (7, 14 and 70 nm) or FITC-BSA (70 nM) in PBS containing 2% FBS+0.1% NaN3 for 30 min at 4° C. in the dark. After washing with PBS, the cells were resuspended in PBS+2% FBS+0.1% NaN3 and analyzed with a FACScan (BD Biosciences) flow cytometer.

HCMa cells = experiment: Confocal direct fluorescence of rBAG3-FITC binding to cardiomyocytes; set-up: species or system Human; conditions: FITC-conjugated BAG3, 1 h, FIG. 3A
Source text: FIG. 3A: Confocal microscopy analysis of direct fluorescence performed for detection of rBAG3-FITC binding to HCMa cells (a, b, c) and J774 A1 cells (d, e, f, g, h, i). BAG3 recombinant protein and purified BSA (albumin from bovine serum purchased from SIGMA) were conjugated to FITC using the FluoroTag FITC Conjugation Kit purchased from SIGMA following the manufacturer instructions. Equal amount of rBAG3-FITC (b, e) and BSA-FITC (h) proteins, calculated following the manufacturer instructions, were added in HCM and J774 A1 culture media with 0.1% NaN3 for 1 h. β-integrin was analyzed as control (a, d, g). Cells were analyzed by a Zeiss LSM confocal microscope. Merged images are shown in c, f and i.
Cells were cultured on coverslips in six-well plates to 60-70% confluence and equal amount of rBAG3-FITC and BSA-FITC proteins were added in HCMa and J774 A1 culture media with 0.1% NaN3 for 1 h. […] Samples were analyzed using a confocal laser scanning microscope (Zeiss LSM confocal microscope, Germany). […] For production of figures, brightness and contrast of images were adjusted by taking care to leave a light cellular fluorescence background for visual appreciation of the lowest fluorescence intensity features and to help comparison among the different experimental groups. […]

[5] = test system: inducible nitric oxide synthase (iNOS); experiment: iNOS expression in J774 A1 macrophages incubated with BAG3 (Western blotting); type: cell-based, murine; conditions: J774 A1 cells, 20 hours, FIG. 3C panel a
Method: (§1) FIG. 3C: panel a—Analysis of Cox-2 and iNOS levels in J774 A1 macrophages incubated with BAG3. J774 A1 cells at 80% confluency were incubated with control medium, BSA, LPS or rBAG3, for 20 hours. Polymixin was added where indicated to verify that the effects of E. coli-derived rBAG3 were independent from the presence of contaminating endotoxin. Cox-2 and iNOS expression were analyzed in cell lysates by Western blotting.
(§2) Cells were harvested and lysed in a buffer containing 20 mM HEPES (pH 7.5), 150 mM NaCl, 0.1% Triton (TNN buffer) supplemented with a protease inhibitors cocktail (1 mM phenylmethylsulfonyl fluoride, […]) by 3 cycles of freezing and thawing. Soluble proteins were collected after a centrifugation at 10,000 g for 15 min and their amount was determined by Bradford assay (Bio-Rad, Hercules, Calif.). 25 μg of total protein and serum samples (1:2 in PBS-T 0.05%) were run on 8% or 10% SDS-PAGE gels and electrophoretically transferred to nitrocellulose membrane. […] Immunoreactivity was detected by sequential incubation with horseradish peroxidase-conjugated secondary antibodies purchased from Pierce (Rockford, Ill.) and ECL detection reagents purchased from Amersham Life Sciences Inc. (Arlington Heights, Ill., USA).

cyclooxygenase (Cox)-2 = experiment: Cox-2 expression in J774 A1 macrophages incubated with BAG3 (Western blotting); type: cell-based, murine; conditions: J774 A1 cells, 20 hours, FIG. 3C panel a
Method: as §1, §2

J774 A.1 cells [6] = experiment: Nitrite release from J774 A1 macrophages (Griess reaction); type: cell-based, murine; conditions: 24 hours, FIG. 3C panel b
Method: FIG. 3C panel b—Analysis of nitrite release from J774 A1 macrophages incubated with BAG3. J774 A1 cells at 80% confluency were incubated with control medium, BSA, LPS or rBAG3 for 24 hours. 100 μl of supernatants from each sample were incubated with 100 μl of Griess reagent; the optical density at 550 nm (OD550) was measured with a Beckman DU62 spectrophotometer. Nitrite concentration was evaluated by comparing the OD550 of the sample with that of a standard curve of sodium nitrite.
Nitrite content (NO2^−), a stable metabolite of NO released by cells in the culture supernatant, was measured in J774 A.1 cells (5×104/in 96-well microplates) treated with LPS (10 ng/ml) or with rBAG3 (7, 14 and 28 nM) or BSA (28 nM) for 24 hours in absence or presence of polymyxin B sulfate (Sigma-Aldrich, St. Louis, Mo., USA) 5 μg/ml. NO2^− amounts were measured by Griess reaction. Briefly, 100 μL of cell culture medium were mixed with 100 μL of Griess reagent—equal volumes of 1% (w:v) sulphanilamide in 5% (v:v) phosphoric acid and 0.1% (w:v) naphtylethylenediamine-HCl—and incubated at room temperature for 10 min, and then the absorbance was measured at 550 nm in a microplate reader Titertek (Dasit, Cornaredo, Milan, Italy). The amount of NO2− (as μM) in the samples was calculated from a sodium nitrite standard curve.

J774 A.1 cells [7] = experiment: IL-6 release from J774 A1 macrophages (ELISA); type: cell-based, murine; conditions: FIG. 3C panel c
Method: FIG. 3C panel c—Analysis of IL-6 release from J774 A1 macrophages incubated with BAG3. J774 A1 cells at 80% confluency macrophages were incubated with control medium, BSA, LPS or recombinant BAG3 for 5 hours. BAG3 peptides (peptide 1, peptide 2, peptide 3, peptide 4 or scrambled peptide) 625 nM were added where indicated to verify their ability to block BAG3 activity. IL-6 production was measured in cell culture medium using an ELISA test. IL-6 concentration was evaluated by comparing the OD of the sample with that of a standard curve of recombinant IL-6.
IL6 was measured in supernatant of J774 A.1 cells (5×10^4/in 96-well microplates) treated with LPS (10 ng/ml) or with rBAG3 (14 nM) or BSA (14 nM) for 10 or 20 hours in absence or presence of polymyxin B sulfate (5 μg/ml). After treatment 50 μL of cell culture medium were collected and analyzed in triplicate with a mouse IL6 Kit (eBioscience).

[8] = biological target: surface of J774 A1 macrophages (unidentified BAG3 binding partner) (murine); experiment: flow cytometry on J774 A.1 cells, FITC-rBAG3
[9] = biological target: surface of J774 A1 macrophages (unidentified BAG3 binding partner) (murine); experiment: flow cytometry on J774 A.1 cells, FITC-rBAG3 minus FITC-BSA background
[10] = biological target: surface of J774 A1 macrophages (unidentified BAG3 binding partner) (murine); experiment: flow cytometry competition; 14 nM FITC-rBAG3 on J774 A.1 cells with 625 nM peptide

% of positive cells [1]: 4.04%
Molecule: FITC-conjugated bovine serum albumin (from UniProt P02769 25-607)

% inhibition [3]: 0% | % of positive cells [3]: 12.3%
Molecule: F(ab')2 fragments from mouse IgG

% inhibition [3]: 0% | % of positive cells [3]: 14.7%
Molecule: F(ab')2 fragments from rabbit IgG

% of positive cells [8]: 15.7% | % of positive cells [9]: 11.1%
Molecule: FITC-conjugated recombinant BAG3 protein (from UniProt O95817 1-575) (ligand)

% inhibition [10]: 93.8% | % of positive cells [10]: 0.68%
Molecule: NPSSMTDTPGNPAAP [BAG3 peptide 4]

% inhibition [10]: 47.2% | % of positive cells [10]: 5.86%
Molecule: DKGKKNAGNAEDPHT [BAG3 peptide 3]

The remaining lines, values behind:

Molecule: NPSSMTDTPGNPAAP (listed as Homo sapiens) [Pep4, 14]
Competition assays: % inhibition (J774 A.1 cells [2]): 93.8% | Competition assays: % of positive cells (±S.D.) (J774 A.1 cells [2]): 0.68 (±0.20) %

Molecule: DKGKKNAGNAEDPHT (listed as Homo sapiens) [Pep3, 13]
Competition assays: % inhibition (J774 A.1 cells [2]): 47.2% | Competition assays: % of positive cells (±S.D.) (J774 A.1 cells [2]): 5.86 (±0.43) %

Molecule: FITC-rBAG3: BAG3 recombinant protein conjugated to FITC
binding to macrophages of the cell line J774 (in words) (J774 A.1 cells [4]; FITC-conjugated BAG3, FIG. 3B): bound to macrophages | % of positive cells (±S.D.) (J774 A.1 cells [4]; FITC-rBAG3 14 nM, J774 cells): 15.7 (±0.45) % | % of positive cells (±S.D.), (FITC-rBAG3)-(FITC-BSA) (J774 A.1 cells [4]; FITC-rBAG3 signal minus FITC-BSA signal, J774 cells): 11.06 (±0.45) % | binding to the cardiomyocyte surface (in words) (HCMa cells): did not apparently bind

Molecule: DRDPLPPGWEIKIDPQ (listed as Homo sapiens) [Pepl, 11]
Competition assays: % inhibition (J774 A.1 cells [2]): 98.4% | Competition assays: % of positive cells (±S.D.) (J774 A.1 cells [2]): 0.18 (±0.05) %

Molecule: SSPKSVATEERAAPS (listed as Homo sapiens) [Pep2, 12]
Competition assays: % inhibition (J774 A.1 cells [2]): 89.1% | Competition assays: % of positive cells (±S.D.) (J774 A.1 cells [2]): 1.21 (±0.63) %

Molecule: FITC-BSA: purified albumin from bovine serum conjugated to FITC, negative control [reference compound]
% of positive cells (±S.D.) (J774 A.1 cells [4]; FITC-BSA negative control, J774 cells): 4.04 (±0.06) %

Molecule: recombinant BAG3: E. coli-derived recombinant BAG3 protein
iNOS levels in macrophages [5]: enhanced | Cox-2 levels in macrophages (cyclooxygenase (Cox)-2): enhanced | release of nitrite (J774 A.1 cells [6]): induced the release | release of interleukin (IL)-6 (J774 A.1 cells [7]): induced the release

Molecule: DRDPLPPGWEIKIDPQ [BAG3 peptide 1]
% inhibition [10]: 98.4% | % of positive cells [10]: 0.18%

Molecule: SSPKSVATEERAAPS [BAG3 peptide 2]
% inhibition [10]: 89.1% | % of positive cells [10]: 1.21%
